US20260217701A1, “SELECTIVE BET INHIBITORS AND USES THEREOF” (Tay Therapeutics Limited, priority 2022, published 2026)
Values joined by “and” are separate entries in the source; they are usually repeats but may differ in a detail not shown here. Equal entries are not always repeated.

Tested on: imiquimod-induced psoriasis
Test: Imiquimod-induced psoriasis model
Type: in vivo, mice
Conditions: for Body Weight D1: Day 1 (before treatment start on Day 8); for Body Weight D1 / Body Weight D3 / Body Weight D5 / Body Weight D7 / Body Weight D8 / Body Weight D9 / Body Weight D10 / Body Weight D11 / Body Weight D12 / Body Weight D13 / Body Weight D14 / Body Weight D15 / MBWC D1-D8 / MBWC D8-D15 / PASI Scores: individual animals; for Body Weight D3: Day 3 (before treatment start on Day 8); for Body Weight D5: Day 5 (before treatment start on Day 8); for Body Weight D7: Day 7 (before treatment start on Day 8); for Body Weight D8: Day 8 (first day of treatment); for Body Weight D9: Day 9; for Body Weight D10: Day 10; for Body Weight D11: Day 11; for Body Weight D12: Day 12; for Body Weight D13: Day 13; for Body Weight D14: Day 14; for Body Weight D15: Day 15; for MBWC D1-D8: body weight change Day 1 to Day 8 (before treatment); for MBWC D8-D15: body weight change Day 8 to Day 15 (treatment period); for PASI Scores: IMI + Compound B 1 mg/kg
In short: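 Psoriasis-like dermatitis induced in mice by daily dorsal imiquimod cream (Days 1–14); dosing with Compound A (5% DMSO/40% PEG-400/55% saline vehicle) began Day 8. Read-outs: summed 0–4 scores for erythema, induration and peeling daily to Day 15, plus terminal spleen ratio, behaviour and serum cytokines.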

[1] = IMI + 1 mg/kg, 1 mg/kg, in g (unit assumed)
[2] = IMI + 3 mg/kg, 3 mg/kg, in g (unit assumed)
[3] = IMI + 10 mg/kg, 10 mg/kg, in g (unit assumed)

COCCn1cc(-c2ccccc2)c(-c2cn(C)c(=O)c3[nH]c(-c4cnn(C(F)(F)F)c4)cc23)cc1=O [Compound B, 4-(1-(2-methoxyethyl)-2-oxo-5-phenyl-1,2-dihydropyridin-4-yl)-6-methyl-2-(1-(trifluoromethyl)-1H-pyrazol-4-yl)-1,6-dihydro-7H-pyrrolo[2,3-c]pyridin-7-one]
symptoms by day 15 (representative images) (10 mg/kg (printed 10 mg/ml)): nearly entirely symptom free
mean PASI score on day 15, dose dependence (1, 3, 10 mg/kg, 10 mg/kg most effective): dose-dependent decrease in PASI scores
efficacy on the treatment of psoriasis (2 lowest doses of 1.0 and 3.0 mg/kg bw): moderate efficacy
Body Weight D1 (IMI + 1 mg/kg, 1 mg/kg): 17.85 and 16.71 and 18.14 (2×) and 17.67 and 18.64 and 18.37 and 17.36
Body Weight D3 [1]: 16.05 and 15.75 and 16.34 and 16.73 and 17.52 and 16.25 and 15.31 and 17.36
Body Weight D5 [1]: 15.71 and 15.27 and 17.54 and 16.77 and 17.97 and 16.83 and 15.98 and 16.57
Body Weight D7 [1]: 16.02 and 15.76 and 17.96 and 17.02 and 17.69 and 17.48 and 16.75 and 17.68
Body Weight D8 [1]: 15.83 and 15.34 and 17.54 and 16.58 and 17.61 and 16.23 and 16.35 and 17.45
Body Weight D9 [1]: 15.70 and 15.29 and 17.68 and 16.64 and 17.26 and 15.94 and 16.69 and 17.21
Body Weight D10 [1]: 15.94 and 15.03 and 17.60 and 16.38 and 17.13 and 16.08 and 15.92 and 17.66
Body Weight D11 [1]: 16.10 and 14.61 and 17.64 and 16.08 and 17.41 and 16.29 and 16.64 and 17.72
Body Weight D12 [1]: 16.03 and 14.93 and 17.80 and 16.29 and 17.39 and 16.49 and 16.17 and 17.53
Body Weight D13 (IMI + 1 mg/kg, 1 mg/kg): 16.53 and 14.84 and 18.05 and 16.45 (2×) and 17.04 (2×) and 16.34
Body Weight D14 [1]: 16.38 and 14.75 and 18.20 and 16.97 and 17.80 and 16.16 and 16.37 and 17.46
Body Weight D15 [1]: 16.34 and 14.67 and 18.01 and 16.62 and 17.29 and 16.44 and 16.12 and 17.36
MBWC D1-D8 (IMI + 1 mg/kg, 1 mg/kg): −2.02 and −1.37 and −0.60 and −1.09 and −1.03 and −2.14 and −1.01 and −0.69
MBWC D8-D15 (IMI + 1 mg/kg, 1 mg/kg): 0.51 and −0.67 and 0.47 and 0.04 and −0.32 and 0.21 and −0.23 and −0.09
Body Weight D1 [2]: 16.04 and 18.93 and 17.71 and 17.81 and 16.63 and 17.34 and 17.52 and 18.08
Body Weight D3 [2]: 13.11 and 16.65 and 15.84 and 16.79 and 15.99 and 16.64 and 14.93 and 16.90
Body Weight D5 [2]: 14.01 and 16.29 and 15.26 and 17.65 and 16.66 and 17.47 and 16.35 and 16.80
Body Weight D7 [2]: 14.25 and 16.26 and 15.31 and 17.34 and 16.40 and 17.79 and 16.44 and 16.80
Body Weight D8 (IMI + 3 mg/kg, 3 mg/kg): 13.57 and 15.67 and 15.44 and 17.59 and 16.51 (2×) and 17.07 and 16.13
Body Weight D9 [2]: 13.93 and 15.56 and 15.22 and 17.78 and 16.23 and 17.14 and 15.89 and 16.28
Body Weight D10 (IMI + 3 mg/kg, 3 mg/kg): 14.23 and 15.76 (2×) and 17.87 and 16.28 and 17.32 and 15.99 and 16.22
Body Weight D11 [2]: 13.97 and 16.26 and 15.22 and 17.70 and 16.63 and 16.90 and 16.81 and 17.13
Body Weight D12 [2]: 14.44 and 16.57 and 15.46 and 17.60 and 17.05 and 16.97 and 16.65 and 17.68
Body Weight D13 [2]: 13.94 and 16.60 and 15.54 and 17.74 and 16.71 and 17.05 and 16.35 and 17.58
Body Weight D14 [2]: 13.70 and 16.12 and 15.70 and 17.96 and 17.04 and 17.47 and 16.08 and 17.19
Body Weight D15 (IMI + 3 mg/kg, 3 mg/kg): 13.78 and 16.88 and 15.93 and 18.05 and 17.29 (2×) and 17.08 and 15.94
MBWC D1-D8 (IMI + 3 mg/kg, 3 mg/kg): −2.47 and −3.26 and −2.27 and −0.22 and −0.12 and −0.27 and −1.39 and −1.57
MBWC D8-D15 (IMI + 3 mg/kg, 3 mg/kg): 0.21 and 1.21 and 0.49 and 0.46 and 0.78 (2×) and 0.01 and −0.19
Body Weight D1 [3]: 18.66 and 16.97 and 17.99 and 16.59 and 14.70 and 18.45 and 16.88 and 17.79
Body Weight D3 (IMI + 10 mg/kg, 10 mg/kg): 16.89 and 15.12 (2×) and 16.64 and 15.35 and 12.66 and 15.18 and 15.47
Body Weight D5 [3]: 16.85 and 16.05 and 17.14 and 16.55 and 13.95 and 16.19 and 15.85 and 16.46
Body Weight D7 (IMI + 10 mg/kg, 10 mg/kg): 17.09 and 15.74 and 18.31 and 16.60 and 14.04 and 16.64 (2×) and 16.00
Body Weight D8 [3]: 16.51 and 15.56 and 18.14 and 16.14 and 14.02 and 16.16 and 15.50 and 16.26
Body Weight D9 [3]: 16.61 and 15.20 and 17.85 and 15.85 and 13.92 and 15.86 and 15.31 and 16.41
Body Weight D10 [3]: 16.48 and 15.64 and 18.33 and 16.10 and 13.59 and 15.70 and 15.00 and 15.80
Body Weight D11 [3]: 16.44 and 15.87 and 17.94 and 16.30 and 14.37 and 16.54 and 16.26 and 16.95
Body Weight D12 [3]: 16.63 and 16.40 and 18.54 and 16.96 and 14.74 and 16.69 and 16.23 and 17.34
Body Weight D13 [3]: 17.12 and 16.52 and 18.44 and 16.93 and 14.68 and 16.17 and 16.27 and 16.95
Body Weight D14 [3]: 17.36 and 16.91 and 18.32 and 17.28 and 15.12 and 16.21 and 16.48 and 17.35
Body Weight D15 [3]: 18.01 and 16.93 and 18.51 and 17.31 and 15.47 and 16.86 and 16.66 and 17.96
MBWC D1-D8 (IMI + 10 mg/kg, 10 mg/kg): −2.15 and −1.41 and 0.15 and −0.45 and −0.68 and −2.29 and −1.38 and −1.53
MBWC D8-D15 (IMI + 10 mg/kg, 10 mg/kg): 1.50 and 1.37 and 0.37 and 1.17 and 1.45 and 0.70 and 1.16 and 1.70
PASI Scores (D8 (day treatment started)): 7 (2×) and 6 (3×) and 8 (3×)
PASI Scores (D9): 8 (3×) and 9 and 5 (3×) and 6
PASI Scores (D10): 6 (4×) and 5 (2×) and 7 (2×)
PASI Scores (D11): 8 and 6 (4×) and 4 and 7 and 9
PASI Scores (D12): 6 (6×) and 4 and 5
